In patent US20150342954A1, “2-BENZYL, 3-(PYRIMIDIN-2-YL) SUBSTITUTED PYRAZOLES USEFUL AS SGC STIMULATORS” (IRONWOOD PHARMACEUTICALS, INC., priority 2011, published 2015):
Read-outs that look alike come from different tables or passages of the source.

Legend:
[1] = target: T1, Human soluble guanylate cyclase enzyme (hsGC) (Homo sapiens, UniProt Q02108+Q02153); assay: Purified human sGC enzyme activity assay (without SNP); assay type: biochemical; settings: compound at 30 μM, absence of SNP, fold over DMSO control
T1 construct: purchased Enzo Inc. ALX-201-177
T1 sequence (Q02153 1-619): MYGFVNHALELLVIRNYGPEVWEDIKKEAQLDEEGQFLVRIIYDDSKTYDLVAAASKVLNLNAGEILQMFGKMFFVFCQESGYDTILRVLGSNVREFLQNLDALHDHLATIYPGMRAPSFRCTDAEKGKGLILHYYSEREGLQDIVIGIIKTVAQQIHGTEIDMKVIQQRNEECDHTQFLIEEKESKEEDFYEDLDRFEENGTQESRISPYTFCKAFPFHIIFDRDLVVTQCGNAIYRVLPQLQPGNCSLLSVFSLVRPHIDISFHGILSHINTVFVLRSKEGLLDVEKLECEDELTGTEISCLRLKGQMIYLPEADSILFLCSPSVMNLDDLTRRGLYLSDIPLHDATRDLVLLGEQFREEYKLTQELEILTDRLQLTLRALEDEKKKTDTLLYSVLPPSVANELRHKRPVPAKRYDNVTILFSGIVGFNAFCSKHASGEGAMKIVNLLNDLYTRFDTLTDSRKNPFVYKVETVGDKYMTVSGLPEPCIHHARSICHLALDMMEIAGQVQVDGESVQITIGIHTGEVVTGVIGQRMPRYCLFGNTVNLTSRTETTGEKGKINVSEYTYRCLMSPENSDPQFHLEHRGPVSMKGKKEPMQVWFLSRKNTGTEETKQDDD
T1 sequence (Q02108 1-690): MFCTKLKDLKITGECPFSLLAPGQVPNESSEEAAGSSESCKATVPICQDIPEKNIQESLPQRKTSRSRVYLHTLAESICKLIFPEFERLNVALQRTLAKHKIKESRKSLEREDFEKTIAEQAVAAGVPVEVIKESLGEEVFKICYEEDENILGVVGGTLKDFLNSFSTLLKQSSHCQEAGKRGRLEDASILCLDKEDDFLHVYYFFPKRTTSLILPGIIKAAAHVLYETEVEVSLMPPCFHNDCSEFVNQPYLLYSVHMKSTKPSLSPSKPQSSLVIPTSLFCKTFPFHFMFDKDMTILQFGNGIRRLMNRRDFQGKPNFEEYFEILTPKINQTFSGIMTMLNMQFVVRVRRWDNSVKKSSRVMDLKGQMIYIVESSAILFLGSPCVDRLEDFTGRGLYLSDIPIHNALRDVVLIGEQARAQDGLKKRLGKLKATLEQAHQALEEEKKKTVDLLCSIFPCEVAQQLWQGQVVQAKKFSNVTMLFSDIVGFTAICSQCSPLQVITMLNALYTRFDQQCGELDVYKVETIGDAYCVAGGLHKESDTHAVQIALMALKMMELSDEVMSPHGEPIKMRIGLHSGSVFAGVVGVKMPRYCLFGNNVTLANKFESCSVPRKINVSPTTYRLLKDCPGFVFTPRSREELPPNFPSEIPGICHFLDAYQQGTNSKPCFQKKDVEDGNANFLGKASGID
Method: Biological Activity Measurements by the Purified Human sGC Enzyme Activity Assay
(§1) Human soluble guanylate cyclase enzyme (hsGC) obtained from Enzo Inc. (P/N: ALX-201-177) was used to evaluate the activity of test compounds. The assay reactions contained 0.1 M Tris (pH 8.0), 0.5 mg/mL BSA (pH 8.0), 2 mM DTT, 2 mM MgCl2, 300 μM GTP, 1 mM 3-isobutyl-1-methylxanthine (IBMX) and 5 ng human soluble guanylate cyclase enzyme. Test compounds in DMSO were then added (2 μL, 10 or 30 μM final concentration) and incubated (200 μL, 96-well plate format) at 37° C. for 30 minutes. The controls were carried out using 2 μL DMSO. After the 30 minute incubation, the reaction was stopped with the addition of 200 μl of cold methanol. The plate was then centrifuged at 3,200 rpm for 10 minutes at room temperature. Supernatants (200 μL) were collected and transferred to a new 96 well plate for analysis.
(§2) An 8 point cGMP (Sigma-Aldrich P/N: G6129) standard curve was prepared in assay buffer ranging from 0.156-20 μM. Samples for the cGMP standard curve were then diluted with an equal volume of methanol resulting in final cGMP concentrations of 0.078-10 μM.
(§3) The cGMP standard curve was generated using GraphPad Prism Software.
(§4) Calculations: Specific Activity was determined by the amount of cGMP formed (nmoles) per mg of sGC per min. Enzyme “fold-change” was calculated by dividing Specific Activity for test compounds by Specific Activity of DMSO controls.

[2] = target: T1, Human soluble guanylate cyclase enzyme (hsGC); assay: Purified human sGC enzyme synergy assay in the presence of 1 μM sodium nitroprusside (SNP); assay type: biochemical; settings: compound at 30 μM, presence of 1 μM SNP
Method: as §1, §2, §3, §4
Biological Measurement by the Purified Human sGC Enzyme Synergy Performed in the Presence of Sodium Nitroprusside (SNP), a Nitric Oxide Donor
Enzyme assays were performed as described above, but was done in the absence or presence of 1 μM sodium nitroprusside (SNP).

[3] = target: T2, soluble guanylate cyclase (sGC) (Homo sapiens, UniProt Q02108+Q02153); assay: sGC-HEK-cGMP assay (run with SNP incubation); assay type: cell-based; settings: for Emax: 10 μM SNP, 100% = 30 μM BAY 41-2272 with 10 μM SNP, read-out: HEK assay Emax-unconstrained (Percent); for HEK MEC-10: concentration that would elicit 10% of the Emax in the presence of 10 μM SNP; for EC50: in the presence of 10 μM SNP
T2 construct: endogenously expressing soluble guanylate cyclase (sGC); endogenous in cells; host or cells: HEK293
T2 sequence (Q02153 1-619): T1 sequence (Q02153 1-619)
T2 sequence (Q02108 1-690): T1 sequence (Q02108 1-690)
Summary of the method: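 HEK293 cells with endogenous sGC were pre-treated 15 min at 37 °C with 0.5 mM IBMX, then exposed to test compound plus sodium nitroprusside for 10 min at 37 °C. Cells were lysed in 0.1 M HCl (4 °C, 30 min), and cGMP was quantified by LC/MS against a standard curve. EC50 values came from concentration-response curves.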

[4] = Table 3A, top of concentration-response curve not fitted to 100%
[5] = Table 3D, read-out: HEK assay EC50
[6] = top of concentration-response curve not fitted to 100%, Table 3D, read-out: HEK assay EC50-unconstrained
[7] = Table 3B, top of concentration-response curve not fitted to 100%
[8] = top of concentration-response curve not fitted to 100%, Table 3E, read-out: HEK assay EC50-unconstrained
[9] = Table 3C, top of concentration-response curve not fitted to 100%
[10] = Table 3F, read-out: HEK assay EC50
[11] = top of concentration-response curve not fitted to 100%, Table 3F, read-out: HEK assay EC50-unconstrained
[12] = Table 3E, read-out: HEK assay EC50

| SMILES | Enzyme Activity (increase at 30 μM without SNP) ([1]; Table 5A) | Enzyme Activity (increase at 30 μM with SNP) ([2]; Table 5A) | Emax [3, 4] | HEK MEC-10 ([3]; Table 3D) | EC50 [3, 5] | EC50 [3, 6] | Enzyme Activity (increase at 30 μM without SNP) ([1]; Table 5B) | Enzyme Activity (increase at 30 μM with SNP) ([2]; Table 5B) | Emax [3, 7] | EC50 [3, 8] | HEK MEC-10 ([3]; Table 3E) | EC50 [3, 12] | other results |
| --- | --- | --- | --- | --- | --- | --- | --- | --- | --- | --- | --- | --- | --- |
| Fc1ccccc1Cn1nc(-c2ncccn2)c(F)c1-c1ccon1 [Compound 34] | B (2 to <5 fold increase) | D (10 or <20 fold increase) | 20 to 40% | D (1 to <10 μM) | 60 to 100 µM | 1 to 5 µM | – | – | – | – | – | – | – |
| Oc1nc(-c2cc(-c3ccoc3)n(Cc3ccccc3F)n2)ncc1F [Compound 87] | – | – | – | – | – | – | D (10 or <20 fold increase) | E (20 to 30 fold increase) | 40 to 60% | 0.01 to 0.5 µM | – | – | – |
| Cn1[nH]c2nc(-c3cc(-c4ccon4)n(Cc4ccccc4F)n3)ncc2c1=O [Compound 112] | – | – | – | – | – | – | – | – | – | – | – | – | Enzyme Activity (increase at 30 μM without SNP) ([1]; Table 5C): A (no increase to <2 fold increase); Enzyme Activity (increase at 30 μM with SNP) ([2]; Table 5C): B (2 to <5 fold increase); Emax [3, 9]: 60 to 80%; HEK MEC-10 ([3]; Table 3F): E (10 to 50 μM); EC50 [3, 10]: 60 to 100 µM; EC50 [3, 11]: 10 to 50 µM |
| NC1=NNC2NC(c3cc(-c4ccon4)n(Cc4ccccc4F)n3)=NC=C12 (centres unmarked) [Compound 118] | – | – | – | – | – | – | – | – | – | – | – | – | Enzyme Activity (increase at 30 μM without SNP) ([1]; Table 5C): C (5 to <10 fold increase); Enzyme Activity (increase at 30 μM with SNP) ([2]; Table 5C): E (20 to 30 fold increase); Emax [3, 9]: 80 to 100%; HEK MEC-10 ([3]; Table 3F): B (0.01 to <0.1 μM); EC50 [3, 10]: < 20 µM; EC50 [3, 11]: 0.5 to 1 µM |
| O=c1[nH]c(-c2cc(-c3ccon3)n(Cc3ccccc3F)n2)ncc1S(=O)(=O)N1CCOCC1 [Compound 60] | B (2 to <5 fold increase) | D (10 or <20 fold increase) | 80 to 100% | C (0.1 to <1 μM) | < 20 µM | 0.5 to 1 µM | – | – | – | – | – | – | – |
| CCCCCCCCCCC(=O)Nc1cnc(-c2cc(-c3ccon3)n(Cc3ccccc3F)n2)nc1N [Compound 58] | A (no increase to <2 fold increase) | B (2 to <5 fold increase) | – | E (10 to 50 μM) | 600 to 900 µM | – | – | – | – | – | – | – | – |
| Oc1nc(-c2cc(-c3ccon3)n(Cc3ccccc3F)n2)ncc1-c1ncco1 [Compound 38] | B (2 to <5 fold increase) | C (5 to <10 fold increase) | 80 to 100% | D (1 to <10 μM) | < 20 µM | 5 to 10 µM | – | – | – | – | – | – | – |

More lines, main results first:

| Enzyme Activity (increase at 30 μM without SNP) ([1]; Table 5A) | Enzyme Activity (increase at 30 μM with SNP) ([2]; Table 5A) | Emax [3, 4] | HEK MEC-10 ([3]; Table 3D) | EC50 [3, 5] | EC50 [3, 6] | Enzyme Activity (increase at 30 μM without SNP) ([1]; Table 5B) | Enzyme Activity (increase at 30 μM with SNP) ([2]; Table 5B) | Emax [3, 7] | EC50 [3, 8] | HEK MEC-10 ([3]; Table 3E) | EC50 [3, 12] | SMILES | other results |
| --- | --- | --- | --- | --- | --- | --- | --- | --- | --- | --- | --- | --- | --- |
| – | – | – | – | – | – | C (5 to <10 fold increase) | D (10 or <20 fold increase) | 40 to 60% | 1 to 5 µM | C (0.1 to <1 μM) | 40 to 60 µM | O=c1ccnc(-c2cc(-c3ccon3)n(Cc3cccc(Cl)c3F)n2)[nH]1 [Compound 81] | – |
| – | – | – | – | – | – | C (5 to <10 fold increase) | D (10 or <20 fold increase) | 60 to 80% | 1 to 5 µM | B (0.01 to <0.1 μM) | 60 to 100 µM | Oc1ccnc(-c2cc(-c3ccon3)n(Cc3cccc(F)c3F)n2)n1 [Compound 84] | – |
| B (2 to <5 fold increase) | D (10 or <20 fold increase) | 40 to 60% | E (10 to 50 μM) | < 20 µM | 5 to 10 µM | – | – | – | – | – | – | CSc1cnc(-c2cc(-c3ccon3)n(Cc3ccccc3F)n2)nc1O [Compound 29, 2-(1-(2-fluorobenzyl)-5-(isoxazol-3-yl)-1H-pyrazol-3-yl)-5-(methylthio)pyrimidin-4-ol] | – |
| – | – | – | – | – | – | C (5 to <10 fold increase) | E (20 to 30 fold increase) | 80 to 100% | 0.5 to 1 µM | B (0.01 to <0.1 μM) | 60 to 100 µM | Nc1ccnc(-c2cc(-c3ccon3)n(Cc3cccc(Cl)c3F)n2)n1 [Compound 78] | – |
| B (2 to <5 fold increase) | D (10 or <20 fold increase) | 40 to 60% | D (1 to <10 μM) | 60 to 100 µM | 10 to 50 µM | – | – | – | – | – | – | Fc1ccccc1Cn1nc(-c2ncc(Br)c(Cl)n2)cc1-c1ccon1 [Compound 52] | – |
| C (5 to <10 fold increase) | D (10 or <20 fold increase) | 80 to 100% | B (0.01 to <0.1 μM) | < 20 µM | 0.5 to 1 µM | – | – | – | – | – | – | Oc1nc(-c2cc(-c3ccon3)n(Cc3ccccc3)n2)ncc1F [Compound 41] | – |
| – | – | – | – | – | – | D (10 or <20 fold increase) | E (20 to 30 fold increase) | 80 to 100% | 0.01 to 0.5 µM | B (0.01 to <0.1 μM) | 60 to 100 µM | Oc1nc(-c2cc(-c3ccon3)n(Cc3cccc(F)c3F)n2)ncc1Cl [Compound 76] | – |
| – | – | – | – | – | – | A (no increase to <2 fold increase) | D (10 or <20 fold increase) | 60 to 80% | 1 to 5 µM | C (0.1 to <1 μM) | 60 to 100 µM | Nc1ccnc(-c2cc(-c3ccon3)n(Cc3ccc(F)cc3F)n2)n1 [Compound 71] | – |
